Source: patent US10881663B2, “Method of treating pain in elderly patients with mild renal impairment” (Baudax Bio, Inc., priority 2018, dated 2021)
Entries after “also recorded” stand apart in the source; their conditions may differ. Like-named read-outs stand apart in the source and are kept apart here.

How the values were obtained:
[1] = intravenous; Ketorolac Tromethamine Injection Prescribing Information; cited from earlier work
[2] = Injection site pain reported after intravenous meloxicam; format: in vivo, human; conditions: patients receiving a dose of intravenous meloxicam
[3] = Single-dose IV meloxicam pharmacokinetics in elderly subjects with mild renal impairment vs healthy controls (Example 3); format: in vivo, human; conditions: single IV dose 30 mg; for AUC(0-6) / AUC(0-t) / AUC(0-inf) / Cmax: iv, 30 mg; for AUC(0-6): AUC0-6 (Mean ± SD), heading: AUC0-6
Experimental: (§1) This study was a single-center, open-label evaluation of the pharmacokinetics and safety, of single doses of meloxicam in elderly subjects with impaired renal function compared with healthy controls. The study enrolled 12 subjects. Eligible subjects were assigned to a study cohort based on their age and renal function. Renal function was assessed using below the equation for estimation of the glomerular filtration rate (GFR).
SCr=serum creatinine measured with a standardized assay.
Enrolled subjects were matched between cohorts according to gender and BMI (±20%).
Enrolled subjects returned to the study center on the day before dosing (Day −1).

[4] = Safety of repeat-dose IV meloxicam 30 mg after major surgery in elderly subjects with impaired renal function (Example 4); conditions: for tolerability: advanced age
[5] = Postoperative opioid analgesic use, IV meloxicam 30 mg vs placebo (Example 4); format: in vivo, human; conditions: for reduction in opioid use compared with placebo: 30 mg IV, p<0.05
[6] = Safety of single IV dose 30 mg meloxicam (Example 3); format: in vivo, human
Experimental: as §1, with “(GFR). GFR(mL/min/1.73 m^2)=175×(SCr)^−1.154×(Age)^−0.203×(0.742 if female)×(1.212 if African American)” for “(GFR).”
Enrolled subjects were matched between cohorts according to gender and BMI (±20%). Subjects were assigned to cohorts as follows: • Cohort 1 (n=6; 3 male, 3 female): subjects aged 65 to 80 years with impaired renal function (GFR 60-89 mL/min/1.73 m^2) • Cohort 2 (n=6; 3 male, 3 female): subjects aged 18 to 55 years with normal renal function (GFR≥90 mL/min/1.73 m^2).
Enrolled subjects returned to the study center on the day before dosing (Day −1). During the treatment visit (Day −1 to Day 3), subjects received a single IV dose 30 mg (25 mg/mL) meloxicam. Whole blood samples were collected for pharmacokinetic (PK) analysis prior to dosing and 5, 10, 20, 30, and 45 minutes, and 1, 2, 4, 6, 12, 18, 24, 36, and 48 hours after dosing.
Safety assessments included monitoring of AEs (adverse events), clinical laboratory tests, vital sign measurements, and ECGs. Upon completion of the treatment visit through Hour 48 (Day 3) assessments, the subjects were discharged from the study center.

O=C(c1ccccc1)c1ccc2n1CCC2C(=O)O (stereo not drawn) [ketorolac]
onset of pain relief [1]: up to 30 minutes

Cc1cnc(NC(=O)C2=C(O)c3ccccc3S(=O)(=O)N2C)s1 [meloxicam, 4-hydroxy-2-methyl-N-(5-methyl-2-thiazolyl)-2H-1,2-benzothiazine-3-carboxamide-1,1-dioxide]
patients who reported injection site pain [2]: 2% | AUC(0-6) ([3]; both sexes, human, plasma, Cohort 1 (65-80 years, mild renal impairment)): 16100 ± 1700 ng·h/mL | AUC(0-6) ([3]; both sexes, human, plasma, Cohort 2 (18-55 years, normal renal function)): 16300 ± 2170 ng·h/mL | AUC(0-t) ([3]; both sexes, human, plasma, Cohort 1 (65-80 years, mild renal impairment), read-out: AUC0-12 (Mean ± SD)): 26000 ± 2690 ng·h/mL | AUC(0-t) ([3]; both sexes, human, plasma, Cohort 1 (65-80 years, mild renal impairment), read-out: AUC0-24 (Mean ± SD)): 40600 ± 4750 ng·h/mL | AUC(0-t) ([3]; both sexes, human, plasma, Cohort 1 (65-80 years, mild renal impairment), read-out: AUC0-t (Mean ± SD)): 70900 ± 18500 ng·h/mL | AUC(0-inf) ([3]; both sexes, human, plasma, Cohort 1 (65-80 years, mild renal impairment), read-out: AUC0-∞ (Mean ± SD)): 71800 ± 19600 ng·h/mL | AUC(0-t) ([3]; both sexes, human, plasma, Cohort 1 (mild renal impairment), read-out: AUC0-t, Least Square Geometric Mean): 69100 ng·h/mL | AUC(0-inf) ([3]; both sexes, human, plasma, Cohort 1 (mild renal impairment), read-out: AUC0-∞, Least Square Geometric Mean): 69800 ng·h/mL | Cmax ([3]; both sexes, human, plasma, Cohort 1 (mild renal impairment), read-out: Cmax, Least Square Geometric Mean): 5870 ng/mL | Cmax ([3]; both sexes, human, plasma, Cohort 1: aged 65 to 80 years, GFR 60-89 mL/min/1.73 m^2, plasma, read-out: Cmax (Mean ± SD)): 5920 ± 842 ng/mL | AUC(0-t) ([3]; both sexes, human, plasma, Cohort 2 (18-55 years, normal renal function), read-out: AUC0-12 (Mean ± SD)): 26400 ± 3920 ng·h/mL | AUC(0-t) ([3]; both sexes, human, plasma, Cohort 2 (18-55 years, normal renal function), read-out: AUC0-24 (Mean ± SD)): 41000 ± 8670 ng·h/mL | AUC(0-t) ([3]; both sexes, human, plasma, Cohort 2 (18-55 years, normal renal function), read-out: AUC0-t (Mean ± SD)): 67900 ± 22500 ng·h/mL | AUC(0-inf) ([3]; both sexes, human, plasma, Cohort 2 (18-55 years, normal renal function), read-out: AUC0-∞ (Mean ± SD)): 68500 ± 22800 ng·h/mL | AUC(0-t) ([3]; both sexes, human, plasma, Cohort 2 (healthy control), read-out: AUC0-t, Least Square Geometric Mean): 64500 ng·h/mL | AUC(0-inf) ([3]; both sexes, human, plasma, Cohort 2 (healthy control), read-out: AUC0-∞, Least Square Geometric Mean): 65100 ng·h/mL | Cmax ([3]; both sexes, human, plasma, Cohort 2 (healthy control), read-out: Cmax, Least Square Geometric Mean): 5580 ng/mL | Cmax ([3]; both sexes, human, plasma, Cohort 2: aged 18 to 55 years, normal renal function, plasma, read-out: Cmax (Mean ± SD)): 5620 ± 713 ng/mL | Tmax ([3]; both sexes, human, plasma, all subjects (both cohorts)): 4.8 min | AUC0-t, Least Square Geometric Mean Ratio (%) (Cohort 1/Cohort 2) [3]: 107% | AUC0-∞, Least Square Geometric Mean Ratio (%) (Cohort 1/Cohort 2) [3]: 107% | Cmax, Least Square Geometric Mean Ratio (%) (Cohort 1/Cohort 2) [3]: 105% | Tmax, Median (range) ([3]; Cohort 1 (65-80 years, mild renal impairment)): 0.08 (0.08-0.08) h | Tmax, Median (range) ([3]; Cohort 2 (18-55 years, normal renal function)): 0.08 (0.08-0.08) h | intensity of AEs ([4]; 30 mg IV every 24 hours up to 7 doses): generally mild or moderate in intensity | tolerability ([4]; 30 mg IV every 24 hours up to 7 doses after major surgery, impaired renal function): well tolerated | tolerability ([4]; 30 mg IV every 24 hours up to 7 doses after major surgery, impaired renal function, listed as IV meloxicam): well tolerated with no deaths or discontinuations due to an AE | incidence of SAEs ([4]; 30 mg IV every 24 hours up to 7 doses after major surgery, age 66-80 years, impaired renal function): 2.3% | injection site AEs ([4]; 30 mg IV over 15-30 seconds every 24 hours up to 7 doses): no injection site AEs | reduction in opioid use compared with placebo ([5]; Hour 0-24 interval): 42.8% | reduction in opioid use compared with placebo ([5]; Hour 24-48 interval): 41.9% | statistically significant reductions in opioid use compared with placebo ([5]; during treatment, 30 mg IV daily): up to 42.8% | infusion or infusion site reactions ([6]; 30 mg as an IV infusion over 17-20 seconds): not associated with any infusion, or infusion site, reactions | intensity of AEs ([6]; single IV dose 30 mg): generally mild or moderate in intensity | vital sign or ECG findings ([6]; single IV dose 30 mg): no clinically significant vital sign or ECG (electrocardiogram) findings | incidence of adverse events (subjects with any event) ([6]; single IV dose 30 mg, all 12 subjects): 33.3% | tolerability ([6]; single IV dose 30 mg, healthy subjects and subjects with mild renal impairment): well tolerated with no incidence of death, SAEs (severe adverse events), or discontinuations due to an AE; also recorded: safe and well tolerated
